We go through 57 compounds from BindingDB's records for patent US20250289799 (Jiangsu Yahong Meditech Co., 2025).

In the assay the target is Ubiquitin carboxyl-terminal hydrolase 1/WD repeat-containing protein 48 (Homo sapiens, UniProt O94782+Q8TAF3). Briefly: In Vitro USP1  Inhibitory Activity. As for the experimental part: Experimental Methods1) Preparation of 1× assay buffer: 1× assay buffer (modified Tris buffer) was prepared;2) Compound dilution: The compound was transferred to the assay plate by Echo.
Chain of Ubiquitin carboxyl-terminal hydrolase 1/WD repeat-containing protein 48 (O94782 whole entry): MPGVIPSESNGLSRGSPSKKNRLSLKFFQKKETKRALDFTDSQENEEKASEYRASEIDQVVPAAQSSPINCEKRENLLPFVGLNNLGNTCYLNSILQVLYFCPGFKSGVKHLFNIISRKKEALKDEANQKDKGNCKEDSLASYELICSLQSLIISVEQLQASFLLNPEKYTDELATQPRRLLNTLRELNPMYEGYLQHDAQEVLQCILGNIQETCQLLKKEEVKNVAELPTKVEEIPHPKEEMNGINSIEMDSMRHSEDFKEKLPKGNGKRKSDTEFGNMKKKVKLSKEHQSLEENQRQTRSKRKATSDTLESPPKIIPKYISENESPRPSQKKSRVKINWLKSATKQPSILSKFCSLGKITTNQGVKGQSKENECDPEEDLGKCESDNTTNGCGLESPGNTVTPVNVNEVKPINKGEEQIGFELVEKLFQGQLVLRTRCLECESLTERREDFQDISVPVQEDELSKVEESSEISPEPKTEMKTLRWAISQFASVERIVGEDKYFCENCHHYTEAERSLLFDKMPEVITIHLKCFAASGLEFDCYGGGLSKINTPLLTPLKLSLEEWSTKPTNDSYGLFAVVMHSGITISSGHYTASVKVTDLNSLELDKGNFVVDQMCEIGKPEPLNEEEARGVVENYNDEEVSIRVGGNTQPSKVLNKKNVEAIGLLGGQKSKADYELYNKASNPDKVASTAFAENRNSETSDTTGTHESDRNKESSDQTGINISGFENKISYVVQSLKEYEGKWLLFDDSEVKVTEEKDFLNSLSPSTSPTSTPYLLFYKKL
Chain of Ubiquitin carboxyl-terminal hydrolase 1/WD repeat-containing protein 48 (Q8TAF3 whole entry): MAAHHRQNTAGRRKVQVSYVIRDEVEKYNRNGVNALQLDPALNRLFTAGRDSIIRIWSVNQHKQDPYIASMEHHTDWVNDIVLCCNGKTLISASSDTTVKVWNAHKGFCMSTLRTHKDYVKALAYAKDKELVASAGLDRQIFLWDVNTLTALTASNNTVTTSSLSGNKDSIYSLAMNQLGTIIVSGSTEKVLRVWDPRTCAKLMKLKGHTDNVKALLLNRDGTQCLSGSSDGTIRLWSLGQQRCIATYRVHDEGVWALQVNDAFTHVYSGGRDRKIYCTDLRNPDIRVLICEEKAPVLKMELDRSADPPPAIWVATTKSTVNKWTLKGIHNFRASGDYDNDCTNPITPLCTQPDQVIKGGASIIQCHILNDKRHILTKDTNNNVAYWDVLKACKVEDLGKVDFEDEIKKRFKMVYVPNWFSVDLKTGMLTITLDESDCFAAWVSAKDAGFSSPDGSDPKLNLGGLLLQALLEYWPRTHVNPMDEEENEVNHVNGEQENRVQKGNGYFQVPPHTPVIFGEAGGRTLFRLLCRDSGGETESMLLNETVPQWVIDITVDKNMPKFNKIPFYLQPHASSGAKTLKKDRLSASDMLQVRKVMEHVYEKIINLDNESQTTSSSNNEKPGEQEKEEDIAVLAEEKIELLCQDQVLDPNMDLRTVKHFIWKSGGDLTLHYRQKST
With `COc1cnc(-c2c(OC)ncnc2C2CC2)nc1NCC1CCN(c2nc(C(F)(F)F)cn2C)CC1` [US20250289799, Example 95], the 50% inhibitory concentration (IC50) stood at 8.4 nM.

`COc1cnc(-c2c(OC)ncnc2C2CC2)nc1NCc1ccc(-c2nc(C(F)(F)F)cn2C)cc1` [US20250289799, Example 96]: the 50% inhibitory concentration (IC50) is 4.8 nM.

Regarding `COc1cnc(-c2c(OC)ncnc2C2CC2)nc1NCc1ccc2c(c1)CCN(C(C)C)C2=O` [US20250289799, Example 97], the midpoint of inhibition, the IC50, lay at 263 nM.

In turn, `COc1cnc(-c2c(OC)ncnc2C2CC2)nc1NCc1ccc(OCc2ccccn2)cc1` [US20250289799, Example 98] registered an IC50 of 144 nM.

For the compound `CCOCCOc1ccc(CNc2nc(-c3c(OC)ncnc3C3CC3)ncc2OC)cc1` [US20250289799, Example 99], the IC50 is 15.1 nM.

As to `COc1cc(-c2nc(C(F)(F)F)cn2C)ccc1CNc1nc(-c2c(OC)ncnc2C2CC2)ncc1OC` [US20250289799, Example 100], the IC50 stood at 4.1 nM.

Consider `COc1cc(CNc2nc(-c3c(OC)ncnc3C3CC3)ncc2OC)ccc1-c1nc(C(F)(F)F)cn1C` [US20250289799, Example 101], for which half-maximal inhibition (IC50) was put at 15 nM.

`COc1cc(-n2nc(C(F)(F)F)cc2C)ccc1CNc1nc(-c2c(OC)ncnc2C2CC2)ncc1OC` [US20250289799, Example 102]: the IC50 was determined as 4.4 nM.

As to `COc1cc(CNc2nc(-c3c(OC)ncnc3C3CC3)ncc2OC)ccc1-n1nc(C(F)(F)F)cc1C` [US20250289799, Example 103], the IC50 was determined as 10 nM.

Compound `COc1cnc(-c2c(OC)ncnc2C2CC2)nc1NCC12CCC(c3nc(C(F)(F)F)cn3C)(CC1)CC2` [US20250289799, Example 104] showed an IC50 of 8.8 nM.

Take `COc1cnc(-c2c(OC)ncnc2C2CC2)nc1NCc1ccc(-c2nc(C)cn2C(F)F)cc1` [US20250289799, Example 105]: half-maximal inhibition (IC50) required 60 nM.

The compound `COc1cnc(-c2c(OC)ncnc2C2CC2)nc1NCc1ccc(-c2nc(C(F)(F)F)cn2C(C)C)cc1` [US20250289799, Example 106] returned an IC50 of 2.9 nM.

`COc1cnc(-c2c(OC)ncnc2C2CC2)nc1NCc1ccc(-c2nc(C(F)(F)F)cn2CF)cc1` [US20250289799, Example 107] displayed a concentration for half-maximal inhibition (IC50) of 16 nM.

Consider `COc1ncnc(C2CC2)c1-c1ncc(OC(C)C)c(N(C)CC2CCN(c3nc(C(F)(F)F)cn3C)CC2)n1` [US20250289799, Example 108], for which the half-maximal inhibitory concentration (IC50) came out at 19.7 nM.

Regarding `COc1ncnc(C2CC2)c1-c1ncc(OC(C)C)c(N(C)Cc2ccc(-c3nc(C(F)(F)F)cn3C)cc2)n1` [US20250289799, Example 109], half-maximal inhibition (IC50) was put at 5.3 nM.

`COc1ncnc(C2CC2)c1-c1ncc(OC(C)C)c(NCC2CCN(c3nc(C(F)(F)F)cn3C)CC2)n1` [US20250289799, Example 110]: the half-maximal inhibitory concentration (IC50) came out at 28.6 nM.

For the compound `COc1ncnc(C2CC2)c1-c1ncc(OC(C)C)c(NCc2ccc(-c3nc(C(F)(F)F)cn3C)cc2)n1` [US20250289799, Example 111], the IC50 came to 10.4 nM.

For `COc1ncnc(C2CC2)c1-c1ncc(OC(C)C)c(NCC23CCC(c4ccc(C(F)(F)F)cn4)(CC2)CC3)n1` [US20250289799, Example 112], the concentration for half-maximal inhibition (IC50) stood at 266 nM.

Regarding `COc1ncnc(C2CC2)c1-c1nc(NCc2ccc(-c3nc(C(F)(F)F)cn3C)s2)c2occc2n1` [US20250289799, Example 113], 23 nM corresponded to half-maximal inhibition (IC50).

Take `COc1ncnc(C2CC2)c1-c1nc(NCc2ccc3c(c2)CCN(C)C3=O)c2occc2n1` [US20250289799, Example 114]: the half-maximal inhibitory concentration (IC50) amounted to 648 nM.

`COc1ncnc(C2CC2)c1-c1nc(NCc2ccc3c(c2)CCN(C(C)C)C3=O)c2occc2n1` [US20250289799, Example 115] showed a half-inhibitory concentration (IC50) of 77 nM.

Compound `COc1ncnc(C2CC2)c1-c1nc(NCc2ccc(OCc3ccccn3)cc2)c2occc2n1` [US20250289799, Example 116] displayed an IC50 of 19.4 nM.

Take `CCOCCOc1ccc(CNc2nc(-c3c(OC)ncnc3C3CC3)nc3ccoc23)cc1` [US20250289799, Example 117]: the half-inhibitory concentration (IC50) worked out at 13.8 nM.

`COc1ncnc(C2CC2)c1-c1nc(NCc2ccc(OC3CC(OC)C3)cc2)c2occc2n1` (configuration not stated) [US20250289799, Example 118]: the midpoint of inhibition, the IC50, lay at 58 nM.

`COc1cc(-c2nc(C(F)(F)F)cn2C)ccc1CNc1nc(-c2c(OC)ncnc2C2CC2)nc2ccoc12` [US20250289799, Example 119] had a concentration for half-maximal inhibition (IC50) of 7.6 nM.

`COc1cc(CNc2nc(-c3c(OC)ncnc3C3CC3)nc3ccoc23)ccc1-c1nc(C(F)(F)F)cn1C` [US20250289799, Example 120]: the concentration for half-maximal inhibition (IC50) is 8.9 nM.

In turn, `COc1cc(-n2nc(C(F)(F)F)cc2C)ccc1CNc1nc(-c2c(OC)ncnc2C2CC2)nc2ccoc12` [US20250289799, Example 121] had a 50% inhibitory concentration (IC50) of 8.3 nM.

Regarding `COc1cc(CNc2nc(-c3c(OC)ncnc3C3CC3)nc3ccoc23)ccc1-n1nc(C(F)(F)F)cc1C` [US20250289799, Example 122], inhibition was half-maximal at 13 nM (IC50).

For the compound `COc1ncnc(C2CC2)c1-c1nc(NCc2ccc(-c3nc(C(F)F)cn3C)cc2)c2occc2n1` [US20250289799, Example 123], the IC50 came to 20 nM.

The compound `COc1ncnc(C2CC2)c1-c1ncc(Cl)c(NCc2ccc(-c3nc(C(F)(F)F)cn3C)cc2)n1` [US20250289799, Example 124] registered an IC50 of 6.1 nM.

The compound `COc1ncnc(C2CC2)c1-c1ncc(Cl)c(NCc2ccc(-c3nc(C(F)(F)F)cn3C3CC3)cc2)n1` [US20250289799, Example 125] displayed a half-inhibitory concentration (IC50) of 3.1 nM.

As to `COc1ncnc(C2CC2)c1-c1ncc(Cl)c(NCc2ccc(-c3nc(C(F)(F)F)cn3CF)cc2)n1` [US20250289799, Example 126], it took 13 nM to reach half-maximal inhibition (IC50).

Take `[2H]C([2H])([2H])N(Cc1ccc(-c2nc(C(F)(F)F)cn2C2CC2)cc1)c1nc(-c2c(OC)ncnc2C2CC2)ncc1F` [US20250289799, Example 128]: the concentration for half-maximal inhibition (IC50) was 2.6 nM.

In turn, `[2H]C([2H])([2H])N(Cc1ccc(-c2nc(C(F)(F)F)cn2CF)cc1)c1nc(-c2c(OC)ncnc2C2CC2)ncc1F` [US20250289799, Example 130] returned an IC50 of 19 nM.

As to `COc1ncnc(C2CC2)c1-c1ncc(C#N)c(NCc2ccc(-c3nc(C(F)(F)F)cn3C)cc2)n1` [US20250289799, Example 131], the midpoint of inhibition, the IC50, lay at 7.4 nM.

As for `C#Cc1cnc(-c2c(OC)ncnc2C2CC2)nc1NCc1ccc(-c2nc(C(F)(F)F)cn2C)cc1` [US20250289799, Example 132], the 50% inhibitory concentration (IC50) turned out to be 6 nM.

Turning to `COc1ncnc(C2CC2)c1-c1ncc(OC(F)F)c(NCC2CCN(c3nc(C(F)(F)F)cn3C)CC2)n1` [US20250289799, Example 133], half-maximal inhibition (IC50) was put at 15 nM.

In the case of `COc1ncnc(C2CC2)c1-c1ncc(OC(F)F)c(NCc2ccc(-c3nc(C(F)(F)F)cn3C)cc2)n1` [US20250289799, Example 134], half-maximal inhibition (IC50) required 3.2 nM.

On to `COc1ncnc(C2CC2)c1-c1ncc(OC(F)F)c(NCc2ccc(-n3nc(C(F)(F)F)cc3C)cc2)n1` [US20250289799, Example 135], for which the IC50 is 3.2 nM.

For the compound `COc1cc(-c2nc(C(F)(F)F)cn2C)ccc1CNc1nc(-c2c(OC)ncnc2C2CC2)ncc1OC(F)F` [US20250289799, Example 136], the IC50 amounted to 17 nM.

Consider `COc1ncnc(C2CC2)c1-c1ncc(CO)c(NCc2ccc(-c3nc(C(F)(F)F)cn3C(C)C)cc2)n1` [US20250289799, Example 137], for which half-maximal inhibition (IC50) required 24 nM.

As for `COCc1cnc(-c2c(OC)ncnc2C2CC2)nc1N(C)Cc1ccc(-c2nc(C(F)(F)F)cn2C(C)C)cc1` [US20250289799, Example 138], the concentration for half-maximal inhibition (IC50) worked out at 9 nM.

Regarding `C#CCN(Cc1ccc(-c2nc(C(F)(F)F)cn2C)cc1)c1nc(-c2c(OC)ncnc2C2CC2)ncc1OC` [US20250289799, Example 139], inhibition was half-maximal at 5.2 nM (IC50).

`COc1cnc(-c2c(OC)ncnc2C2CC2)nc1N(Cc1ccc(-c2nc(C(F)(F)F)cn2C)cc1)C1CCOC1` (configuration not stated) [US20250289799, Example 140] yielded a half-inhibitory concentration (IC50) of 73 nM.

For the compound `COc1cnc(-c2c(OC)ncnc2C2CC2)nc1N(Cc1ccc(-c2nc(C(F)(F)F)cn2C)cc1)C1CC1` [US20250289799, Example 141], the concentration for half-maximal inhibition (IC50) is 9.5 nM.

`COc1cnc(-c2c(OC)ncnc2C2CC2)nc1N(Cc1ccc(-c2nc(C(F)(F)F)cn2C)cc1)OC` [US20250289799, Example 142] returned a half-inhibitory concentration (IC50) of 25 nM.

Turning to `COc1cnc(-c2cccc3ccn(C)c23)nc1NCc1ccc(-c2nc(C(F)(F)F)cn2C)cc1` [US20250289799, Example 143], half-maximal inhibition (IC50) required 31 nM.

The compound `COc1cnc(-c2cccc3ccn(C)c23)nc1NCc1ccc(-n2nc(C(F)(F)F)cc2C)cc1` [US20250289799, Example 144] showed an IC50 of 68.6 nM.

The compound `COc1cnc(-c2cccc3c2N(C)CC3)nc1NCc1ccc(-c2nc(C(F)(F)F)cn2C)cc1` [US20250289799, Example 145] registered a concentration for half-maximal inhibition (IC50) of 19 nM.

Compound `COc1cnc(-c2c(C)ncn2C(C)C)nc1NCc1ccc(-c2nc(C(F)(F)F)cn2C)cc1` [US20250289799, Example 147] showed an IC50 of 364 nM.

For `Cc1ncn(C(C)C)c1-c1nc(NCc2ccc(-c3nc(C(F)(F)F)cn3C)cc2)c2occc2n1` [US20250289799, Example 149], the IC50 worked out at 69.2 nM.

In turn, `Cc1ncn(C(C)C)c1-c1nc(NCC23CCC(c4ccc(C(F)(F)F)cn4)(CC2)CC3)c2occc2n1` [US20250289799, Example 150] registered a half-maximal inhibitory concentration (IC50) of 431 nM.

Take `COc1cnc(-c2cccnc2C2CC2)nc1N(C)CC1CCN(c2ccccn2)CC1` [US20250289799, Example 151]: it took 72 nM to reach half-maximal inhibition (IC50).

For `COc1cnc(-c2cccnc2C2CC2)nc1NCC1CCN(c2nc(C(F)(F)F)cn2C)CC1` [US20250289799, Example 152], half-maximal inhibition (IC50) required 7.5 nM.

`COc1cnc(-c2cccnc2C2CC2)nc1NCc1ccc(-c2nc(C(F)(F)F)cn2C)cc1` [US20250289799, Example 153] had an IC50 of 3.4 nM.

Consider `COc1cnc(-c2cccnc2C2CC2)nc1NCc1ccc(-n2nc(C(F)(F)F)cc2C)cc1` [US20250289799, Example 154], for which inhibition was half-maximal at 6.2 nM (IC50).

Compound `c1ccc(-c2ccc(CNc3nc(-c4cccnc4C4CC4)nc4ccoc34)cc2)nc1` [US20250289799, Example 155] gave an IC50 of 12 nM.
